Assay: Dose-response in microfluidic chip device: change in chip pressure (intraocular pressure model) after treatment of bovine vitreous humor
Details: 12.5% homogenized BVH in PBS incubated with compound at 37° C. for 1 hour; 7 ul injected; relative change in chip pressure recorded for 50 min; half-maximal response; read-out: EC50 for treatment of bovine vitreous humor (glaucoma model)
Description: The compound bivalirudin TFA was tested in bovine vitreous humor (BVH) in a microfluidic chip device. A solution of 25% homogenized BVH in PBS buffer was prepared and diluted with an equal amount of a solution of the compound, so that the total BVH concentration was 12.5%. The sample was vortexed and incubated at 37° C. for 1 hour. A control of either PBS buffer or PBS with 10% ethanol or DMSO was used and incubated with BVH under the same conditions.
The test compound-BVH solution was introduced into the reservoir of the microfluidic chip device and flow rate and pressure change were recorded. Various concentrations of the compound were tested for effects on the treatment of bovine vitreous humor. 7 ul of each test solution was injected into the microfluidic chip through a sample injector. Recording of the flow rate and pressure change was continued for 50 additional minutes after the sample injection. The relative change in chip pressure for the entire course of the experiment was obtained.
The EC50 value was taken as the point on the x-axis at which the logarithmic function of the micromolar concentration of the compound produced half-maximal response. […] The response was calculated by taking the absolute difference between the control and test value for each concentration. […]

Substance	EC50 [nM]
bivalirudin TFA	1.2
polymyxin B sulfate	4.3

— patent US20230090884A1, “DEVICE AND METHODS FOR ISOLATING EXTRACELLULAR MATRIX BODIES” (AUFBAU MEDICAL INNOVATIONS LIMITED, priority 2020, published 2023)
